The record followed here is ChEMBL document CHEMBL1131885, “Acyclic structural variants of growth hormone secretagogue L-692,429” (1999).

Molecules are shown by their SMILES. Activity calls are given as the source filed them. The rule behind the calls is not given here. Some results are limits rather than exact numbers.

Assay [1] is filed under the species Rattus norvegicus. Put plainly: In vitro growth hormone release in rat pituitary cells assay was determined. The format is functional. The settings on record: Pituitary gland cell, read-out: ED50 (the source's name).
Assay [2] is filed under the species Rattus norvegicus. Nature of the assay: In vitro growth hormone release in rat pituitary cells assay was determined; IA means inactive. Format: functional, cell-based. The following applies: Pituitary gland cell.

In the case of `CC(C)N(Cc1ccc(-c2ccccc2-c2nn[nH]n2)cc1)C(=O)[C@@H](CCc1ccccc1)NC(=O)C(C)(C)N`, the EC50 in assay [1] was over 500 nM. Still for that read-out and setting: as for `CN(C(=O)[C@@H](CCc1ccccc1)NC(=O)C(C)(C)N)c1ccc(-c2ccccc2-c2nn[nH]n2)cc1`, the figure is 300 nM; as for `CC(C)(N)CC(=O)N[C@H](Cc1ccccc1)C(=O)NCc1ccc(-c2ccccc2-c2nn[nH]n2)cc1`, 11000 nM; as for `CC(C)(N)CC(=O)N[C@H](Cc1c[nH]c2ccccc12)C(=O)NCc1ccc(-c2ccccc2-c2nn[nH]n2)cc1`, 400 nM.

With `CN(Cc1ccc(-c2ccccc2-c2nn[nH]n2)cc1)C(=O)[C@@H](CCc1ccccc1)NC(=O)C(C)(C)N`, in assay [1], the EC50 worked out at 30 nM. On the same count and under the same terms, with `CCN(Cc1ccc(-c2ccccc2-c2nn[nH]n2)cc1)C(=O)[C@@H](CCc1ccccc1)NC(=O)C(C)(C)N` the figure was over 500 nM; with `CN(Cc1ccc(-c2ccccc2-c2nn[nH]n2)cc1)C(=O)[C@@H](CCc1ccccc1)NC(=O)CC(C)(C)N`, over 300 nM.

`C[C@@H](NC(=O)CC(C)(C)N)C(=O)NCc1ccc(-c2ccccc2-c2nn[nH]n2)cc1`: the ED50 entry in assay [2] is “inactive”. Regarding `CC(C)(N)CC(=O)N[C@@H]1CCc2ccccc2N(Cc2ccc(-c3ccccc3-c3nn[nH]n3)cc2)C1=O`, in assay [1], the EC50 is 60 nM. For `CN(Cc1ccc(-c2ccccc2-c2nn[nH]n2)cc1)C(=O)[C@@H](CCc1ccccc1)NC(=O)CCC(C)(C)N`, the EC50 in assay [1] was over 300 nM.

Take `CC(C)(N)CC(=O)N[C@H](CCc1ccccc1)C(=O)NCc1ccc(-c2ccccc2-c2nn[nH]n2)cc1`: the EC50 in assay [1] came to 200 nM. On to `CC[C@@H](NC(=O)CC(C)(C)N)C(=O)N(Cc1ccc(-c2ccccc2-c2nn[nH]n2)cc1)c1ccccc1`, for which the EC50 in assay [1] is 11000 nM. For the molecule `CC(C)(N)CC(=O)NCC(=O)NCc1ccc(-c2ccccc2-c2nn[nH]n2)cc1`, the ED50 result in assay [2] is “inactive”.

Regarding `CC(C)(N)CC(=O)N[C@H](COCc1ccccc1)C(=O)NCc1ccc(-c2ccccc2-c2nn[nH]n2)cc1`, the EC50 in assay [1] is over 1000 nM.
